How the values were obtained:
[1] = system: NT2/D1 cells; assay: Curcuminoid binding to NT2/D1 cells
Experimental: NT2/D1 cells were grown in 25 cm^2 flasks to a density of about 90% confluence (6 to 8 × 10^6 cells) with 6 ml of Dulbecco's Minimal Essential Medium (DMEM) containing 5% fetal calf serum (FCS). […] The remaining volume consisted of varying ratios of DMEM and mouse serum to generate dose curves with constant curcuminoid and variable serum concentrations. […] Cells were then washed three times in the flasks with 5 mL of 0.9% saline and then scraped into 1 ml of the same solution. The cell suspension was centrifuged at 3,000 × g for one minute and the supernatant removed. The cell pellet was resuspended in 1 ml of 0.6% saline and re-centrifuged. The final pellet was suspended in 0.4 ml of 0.6% saline and mixed with 0.8 ml of acetone. All samples were stored at -20°C for 2 to 16 h and processed for reversed phase chromatography as described above for tissue preparation.

[2] = cited from earlier work
[3] = parameters: method as in PMID 17340565; settings: i.v. 10 mg/kg in DMA/PEG/dextrose, rats; read-out: initial plasma concentrations; cited from earlier work
[4] = parameters: method as in PMID 18417733; settings: intramuscular 3 mg/kg, four hours after injection; cited from earlier work
[5] = HP-γ-CD-solubilized, dose curve ~50% BMAX, Figure 9B left
[6] = HP-γ-CD-solubilized, saturating (100% BMAX), 300 μM, no serum, Figure 9B middle
[7] = HP-γ-CD-solubilized, serum competition, 95% serum, Figure 9B right
[8] = mouse serum-solubilized, dose curve ~50% BMAX, Figure 9A left
[9] = mouse serum-solubilized, saturating (100% BMAX), 200 μM, 5% serum, Figure 9A middle
[10] = mouse serum-solubilized, serum competition, 100% serum, Figure 9A right

Compound	relative contribution to cell-bound curcuminoids (percentage of the total) [1, 5] [%]	relative contribution to cell-bound curcuminoids (percentage of the total) [1, 6] [%]	relative contribution to cell-bound curcuminoids (percentage of the total) [1, 7] [%]	relative contribution to cell-bound curcuminoids (percentage of the total) [1, 8] [%]	relative contribution to cell-bound curcuminoids (percentage of the total) [1, 9] [%]	relative contribution to cell-bound curcuminoids (percentage of the total) [1, 10] [%]	plasma levels after oral administration [2] [µM]	C0 [3] [µM]	brain levels [4]
COc1cc(/C=C/C(O)=C/C(=O)/C=C/c2ccc(O)cc2)ccc1O [DMC, demethoxycurcumin]	23	24	19	24	24	20			
bisdemethoxycurcumin [BDMC]	35	48	26	27	15	15			
curcumin	42	28	55	49	61	65	≤ 1	~27	approximately 3.2 nmol/g
